Read-outs that look alike come from different tables or passages of the source.
Columns and labels:
Format in all cases: cell-based
[1] = target: T1, NR2F6 (Homo sapiens, UniProt P10588); assay: NR2F6 agonist screening, Firefly signal cmpd/DMSO; details: for Firefly F4, cmpd/DMSO (mean): Table 14; for Firefly, cmpd/DMSO repeat 1 / Firefly, cmpd/DMSO repeat 2: first set screening, 10 μM
T1 construct: expressed in transfected cells; also transient transfection
T1 sequence (P10588 1-404): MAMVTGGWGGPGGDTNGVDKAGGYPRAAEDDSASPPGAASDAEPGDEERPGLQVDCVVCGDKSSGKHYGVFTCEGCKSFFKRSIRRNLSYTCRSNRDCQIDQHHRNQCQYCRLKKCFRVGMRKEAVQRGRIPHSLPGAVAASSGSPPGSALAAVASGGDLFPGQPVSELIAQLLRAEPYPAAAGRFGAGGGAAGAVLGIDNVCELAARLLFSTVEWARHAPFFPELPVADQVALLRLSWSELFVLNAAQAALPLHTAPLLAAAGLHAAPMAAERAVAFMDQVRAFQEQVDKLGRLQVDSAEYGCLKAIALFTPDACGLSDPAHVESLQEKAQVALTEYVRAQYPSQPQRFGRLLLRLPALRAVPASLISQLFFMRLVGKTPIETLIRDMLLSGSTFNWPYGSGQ

[2] = test system: Renilla; assay: Renilla signal in NR2F6 agonist screening, cmpd/DMSO; details: for fold induction at 2 µM / fold induction at 10 µM / fold induction at 40 µM: Renilla
[3] = test system: HEK293 pGL4; assay: Firefly_pGL signal, cmpd/DMSO (pGL4 control cells); details: Homo sapiens, HEK293, Table 14, read-out: Firefly pGL4, cmpd/DMSO (mean)
[4] = test system: Renilla_ERa; assay: Renilla signal in ERα counterscreen (Renilla_ERa); details: ERα transient transfection, 10 μM
[5] = target: T2, ERα (Homo sapiens, UniProt P03372); assay: Counterscreening, Firefly signal with ERα transient transfection (Firefly_ERa); details: ERα transient transfection, 10 μM
T2 construct: expressed in transfected cells
T2 sequence (P03372 1-595): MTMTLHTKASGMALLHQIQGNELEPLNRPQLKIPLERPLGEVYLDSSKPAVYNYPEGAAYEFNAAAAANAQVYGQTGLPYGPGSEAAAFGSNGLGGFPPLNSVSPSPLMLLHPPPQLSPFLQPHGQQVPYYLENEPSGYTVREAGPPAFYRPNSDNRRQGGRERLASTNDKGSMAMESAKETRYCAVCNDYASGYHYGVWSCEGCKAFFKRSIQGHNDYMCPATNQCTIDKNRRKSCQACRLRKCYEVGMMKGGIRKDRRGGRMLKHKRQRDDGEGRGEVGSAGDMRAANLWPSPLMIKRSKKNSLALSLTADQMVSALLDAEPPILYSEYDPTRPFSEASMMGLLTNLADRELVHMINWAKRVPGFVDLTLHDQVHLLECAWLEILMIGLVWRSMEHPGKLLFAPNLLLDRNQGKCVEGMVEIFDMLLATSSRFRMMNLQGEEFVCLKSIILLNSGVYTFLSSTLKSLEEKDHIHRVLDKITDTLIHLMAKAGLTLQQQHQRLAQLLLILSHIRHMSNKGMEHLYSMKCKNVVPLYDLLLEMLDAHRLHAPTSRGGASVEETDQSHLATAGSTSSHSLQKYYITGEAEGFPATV
Description: The methodology for screening candidate compounds as NR2F6 agonists was as follows: For primary screening, hit criteria was ACT %>DMSO control+5*SD (DSO control) at 10 μM, or any compound with S/B>2. For rescreening, hit criteria was ACT %>DMSO control+3*SD (DSO control) in each replicate at 10 μM. For counterscreening, hit criteria was mean ACT<DMSO control+3*SD (DMSO control) with ERα transient transfection in duplicate at 10 μM.

[6] = Table 14, read-out: Renilla F4, cmpd/DMSO (mean)
[7] = Table 14, 10 uM, read-out: Renilla F4, cmpd/DMSO (mean)
[8] = first set screening, 10 μM, repeat 1, read-out: Renilla, cmpd/DMSO repeat 1
[9] = first set screening, 10 μM, repeat 2, read-out: Renilla, cmpd/DMSO repeat 2
[10] = repeat 1, read-out: Renilla_ERa, cmpd/DMSO repeat 1
[11] = repeat 2, read-out: Renilla_ERa, cmpd/DMSO repeat 2
[12] = first set screening, 10 μM, repeat 1
[13] = first set screening, 10 μM, repeat 2

Firefly F4, cmpd/DMSO (mean) ([1]; 2 uM) | Firefly F4, cmpd/DMSO (mean) ([1]; 10 uM) | Firefly F4, cmpd/DMSO (mean) ([1]; 40 uM) | Firefly, cmpd/DMSO repeat 1 [1] | Firefly, cmpd/DMSO repeat 2 [1] | Firefly_ERa, cmpd/DMSO repeat 1 [5] | Firefly_ERa, cmpd/DMSO repeat 2 [5] | Compound | fold induction at 2 µM [2, 6] | fold induction at 10 µM [2, 7] | fold induction at 40 µM [2, 6] | fold induction at 10 µM [2, 8] | fold induction at 10 µM [2, 9] | fold induction at 2 µM [3] | fold induction at 10 µM [3] | fold induction at 40 µM [3] | fold induction at 10 µM [4, 10] | fold induction at 10 µM [4, 11] | further results
1.9 | 1.2 | 1.3 | 2.2 | 2.4 | 2.5 | 2.2 | Cc1ccn2cc(-c3ccc(F)cc3)cc2c1 [Compound 17] | 0.8 | 1 | 1 | 1.3 | 1.4 | 1.7 | 1.6 | 1.3 | 1.3 | 1 | 
1.3 | 1.4 | 0.6 | 2.1 | 2.9 | 1.5 | 2.2 | O=C(COc1ccccc1C(=O)N1CCOCC1)NCCc1ccccc1 [Compound 22] | 0.8 | 1.1 | 1 | 1.1 | 1.3 | 1.6 | 1 | 1.5 | 0.8 | 1.1 | 
 |  |  | 2.0 | 2.3 | 1.3 | 1.6 | CCc1ccc(OCC(=O)Nc2cc(-c3nc4cc(C)ccc4o3)ccc2C)cc1 [Compound 24] |  |  |  |  |  |  |  |  |  |  | Renilla, cmpd/DMSO repeat 1 [2, 12]: 2.4; Renilla, cmpd/DMSO repeat 2 [2, 13]: 2.2; Renilla_ERa, cmpd/DMSO repeat 1 ([4]; repeat 1): 0.9; Renilla_ERa, cmpd/DMSO repeat 2 ([4]; repeat 2): 1.0
 |  |  | 2.4 | 1.9 | 1.3 | 0.7 | O=c1[nH]c(CS(=O)(=O)c2ccccc2)nc2sc3c(c12)CCCC3 [Compound 25] |  |  |  |  |  |  |  |  |  |  | Renilla, cmpd/DMSO repeat 1 [2, 12]: 3.1; Renilla, cmpd/DMSO repeat 2 [2, 13]: 2.1; Renilla_ERa, cmpd/DMSO repeat 1 ([4]; repeat 1): 0.9; Renilla_ERa, cmpd/DMSO repeat 2 ([4]; repeat 2): 1.0
0.5 | 0.5 | 0.4 | 3.4 | 4.1 | 1.0 | 1.0 | Cc1cc(NC(=O)CCS(=O)(=O)c2nc(-c3ccc4c(c3)OCO4)cc(C(F)(F)F)n2)no1 [Compound C1] | 2.1 | 0.2 | 0.2 | 4.1 | 1.5 | 0.7 | 0.7 | 0.6 | 1.3 | 1.2 | activity (in words) ([1]; screening result): particularly good activity
 |  |  | 2.7 | 2.2 | 1.0 | 0.8 | COc1ccc(-c2cc(C(F)(F)F)nc(S(=O)(=O)CCCC(=O)Nc3sc4c(c3C(N)=O)CCCC4)n2)cc1OC [Compound C2] |  |  |  | 6 | 5.3 |  |  |  | 1.7 | 1.6 | 
1.5 | 1.1 | 0.9 | 2.0 | 2.0 | 1.8 | 1.9 | Cc1ccc(-c2nc3ccccc3c(=O)[nH]2)cc1 [Compound C3] | 1 | 0.9 | 0.9 | 1.6 | 1.2 | 1.1 | 1.3 | 1 | 1.1 | 1.2 | 
1.1 | 0.8 | 0.7 | 2.5 | 2.5 | 1.6 | 1.7 | CCOC(=O)c1cnn2c(-c3ccc(Cl)cc3)ccnc12 [Compound C4] | 0.6 | 0.5 | 0.5 | 1.6 | 1.5 | 1 | 0.9 | 1.3 | 1.1 | 1.2 | 
 |  |  | 2.1 | 2.8 | 1.2 | 1.2 | COCCNC(=O)c1ccc2c(c1)N=C(C)c1cc(C)ccc1S2 [Compound C8] |  |  |  | 3.4 | 3.1 |  |  |  | 1 | 1.1 | 
 |  |  | 2.7 | 1.9 | 2.5 | 2.4 | CNC(=O)c1ccc2c(c1)N=C(C)c1cc(C)ccc1S2 [Compound C9] |  |  |  | 2.4 | 2.5 |  |  |  | 0.9 | 1 | 
 |  |  | 2.1 | 2.6 | 1.0 | 1.3 | COc1cc(Nc2c3c(nc4ccc(Cl)cc24)CCC3)cc(OC)c1OC [Compound C10] |  |  |  | 3.1 | 1.6 |  |  |  | 0.7 | 0.8 | 
 |  |  | 2.7 | 2.3 | 1.0 | 0.9 | CCn1c(=O)c2cc(C(=O)Nc3ccc4c(C)cc(=O)oc4c3)sc2c2ccccc21 [Compound C16] |  |  |  | 3.9 | 3.2 |  |  |  | 0.9 | 1.1 | 

Compound | Firefly F4, cmpd/DMSO (mean) ([1]; 2 uM) | Firefly F4, cmpd/DMSO (mean) ([1]; 10 uM) | Firefly F4, cmpd/DMSO (mean) ([1]; 40 uM) | Firefly, cmpd/DMSO repeat 1 [1] | Firefly, cmpd/DMSO repeat 2 [1] | Firefly_ERa, cmpd/DMSO repeat 1 [5] | Firefly_ERa, cmpd/DMSO repeat 2 [5] | fold induction at 2 µM [2, 6] | fold induction at 10 µM [2, 7] | fold induction at 40 µM [2, 6] | fold induction at 10 µM [2, 8] | fold induction at 10 µM [2, 9] | fold induction at 2 µM [3] | fold induction at 10 µM [3] | fold induction at 40 µM [3] | fold induction at 10 µM [4, 10] | fold induction at 10 µM [4, 11] | further results
COc1ccc(-c2cn3cccc(C)c3n2)cc1 [Compound 19] | 1.7 | 1.0 | 0.5 | 2.2 | 1.7 | 2.3 | 2.4 | 1.1 | 1 | 0.6 | 1.6 | 1.7 | 1.9 | 1.3 | 0.9 | 1.2 | 1 | 

Reference: US11377442B2, “Small molecule agonists and antagonists of NR2F6 activity” (ZANDER THERAPEUTICS, INC., priority 2016, dated 2022)
